Counter-ions that a name gives are not always drawn.
How the values were obtained:
sodium channel = assay: Guanidine influx assay (14C-guanidine radiotracer flux, in vitro); assay type: cell-based, human or rat; conditions: guanidine influx assay using a known cell line that expresses a sodium channel
Outline: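 Cells (human/rat Nav, endogenous or recombinant), ~100,000/well, 20-24 h 37 °C/5% CO2. Wash LNHBSS (150 mM choline Cl, HEPES, glucose). Add cpd + aconitine/14C-guanidine mix, RT. Wash, dry, scintillation count. IC50: 4-PL fit; selectivity as IC50 ratio vs reference channel, e.g. Nav1.5.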

CYP3A4 = CYP3A4 (Homo sapiens, UniProt P08684); assay: Cytochrome P450 (CYP450) Inhibition Assay, CYP3A4 (Vivid fluorescence, BOMCC substrate); conditions: human, P450 Baculosomes (recombinant CYP3A4), probe BOMCC (Vivid substrate)
CYP3A4, sequence (P08684 whole entry): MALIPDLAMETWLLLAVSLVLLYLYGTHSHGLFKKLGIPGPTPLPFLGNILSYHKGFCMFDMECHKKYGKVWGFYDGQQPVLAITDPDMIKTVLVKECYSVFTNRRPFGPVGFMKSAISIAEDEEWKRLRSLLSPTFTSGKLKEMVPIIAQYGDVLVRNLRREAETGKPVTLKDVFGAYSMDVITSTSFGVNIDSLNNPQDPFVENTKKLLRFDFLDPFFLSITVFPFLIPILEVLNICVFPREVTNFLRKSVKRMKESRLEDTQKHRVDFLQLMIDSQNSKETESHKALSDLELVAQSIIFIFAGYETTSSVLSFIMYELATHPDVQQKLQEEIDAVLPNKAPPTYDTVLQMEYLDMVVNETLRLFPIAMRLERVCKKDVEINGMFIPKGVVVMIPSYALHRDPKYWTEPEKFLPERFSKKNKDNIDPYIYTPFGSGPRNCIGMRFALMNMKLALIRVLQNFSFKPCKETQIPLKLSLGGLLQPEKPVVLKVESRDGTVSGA

melting point | IC50 (sodium channel) [nM] | inhibition at 10 µM (CYP3A4) [%] | SMILES
167 °C (dec.) | – | – | CC(C)N1CCC(CN2C(=O)C3(COc4cc5c(cc43)CCO5)c3ccccc32)CC1.Cl (centres unmarked)
135 °C (dec.) | – | – | CCN1CCC(CN2C(=O)C3(COc4cc5c(cc43)CCO5)c3ccccc32)CC1.Cl (centres unmarked)
> 175 °C (dec.) | – | – | CN1CCN(CN2C(=O)C3(COc4cc5c(cc43)OCO5)c3ccccc32)CC1 (centres unmarked) (as salt: chloride) [Example 11.63, 1′-[(4-methylpiperazin-1-yl)methyl]spiro[furo[2,3-f][1,3]benzodioxole-7,3′-indol]-2′(1′H)-one hydrogen chloride]
> 200 °C (dec.) | – | – | COc1cc2c(cc1C)[C@@]1(CO2)C(=O)N(CN2CCN(C)CC2)c2ccccc21 (as salt: chloride) [Example 11.64, (3S)-6-methoxy-5-methyl-1′-[(4-methylpiperazin-1-yl)methyl]spiro[1-benzofuran-3,3′-indol]-2′(1′H)-one hydrogen chloride]
> 200 °C (dec.) | – | – | COc1cc2c(cc1C)[C@]1(CO2)C(=O)N(CN2CCN(C)CC2)c2ccccc21 (as salt: chloride) [Example 11.65, (3R)-6-methoxy-5-methyl-1′-[(4-methylpiperazin-1-yl)methyl]spiro[1-benzofuran-3,3′-indol]-2′(1′H)-one hydrogen chloride]
181 °C (dec.) | – | – | CN1CCN(CN2C(=O)C3(COc4cc5c(cc43)CCO5)c3ccccc32)CC1 (centres unmarked) (as salt: hydrochloride)
– | 1 to 100 | > 50 | CN(C)C(=O)c1ccc(CN2C(=O)C3(COc4cc5c(cc43)CCO5)c3ccccc32)o1 (centres unmarked) [Example 13.1, N,N-dimethyl-5-[(2′-oxo-5,6-dihydrospiro[benzo[1,2-b:5,4-b′]difuran-3,3′-indol]-1′(2′H)-yl)methyl]furan-2-carboxamide]
– | 100 to 1000 | > 50 | CNC(=O)c1ccc(CN2C(=O)C3(COc4cc5c(cc43)CCO5)c3ccccc32)o1 (centres unmarked) [Example 13.2, N-methyl-5-[(2′-oxo-5,6-dihydrospiro[benzo[1,2-b:5,4-b′]difuran-3,3′-indol]-1′(2′H)-yl)methyl]furan-2-carboxamide]
– | 100 to 1000 | < 50 | NC(=O)c1coc(CN2C(=O)C3(COc4cc5c(cc43)CCO5)c3ccccc32)n1 (centres unmarked) [Example 13.3, 2-[(2′-oxo-5,6-dihydrospiro[benzo[1,2-b:5,4-b′]difuran-3,3′-indol]-1′(2′H)-yl)methyl]-1,3-oxazole-4-carboxamide]
– | 100 to 1000 | < 50 | CN(C)C(=O)c1coc(CN2C(=O)C3(COc4cc5c(cc43)CCO5)c3ccccc32)n1 (centres unmarked) [Example 13.4, N,N-dimethyl-2-[(2′-oxo-5,6-dihydrospiro[benzo[1,2-b:5,4-b′]difuran-3,3′-indol]-1′(2′H)-yl)methyl]-1,3-oxazole-4-carboxamide]
– | 1 to 100 | > 50 | O=C(NC1CC1)c1coc(CN2C(=O)C3(COc4cc5c(cc43)OCO5)c3ccccc32)n1 (centres unmarked) [Example 13.5, N-cyclopropyl-2-[(2′-oxospiro[furo[2,3-f][1,3]benzodioxole-7,3′-indol]-1′(2′H)-yl)methyl]-1,3-oxazole-4-carboxamide]
– | 1 to 100 | > 50 | CC(C)NC(=O)c1coc(CN2C(=O)C3(COc4cc5c(cc43)OCO5)c3ccccc32)n1 (centres unmarked) [Example 13.6, N-(1-methylethyl)-2-[(2′-oxospiro[furo[2,3-f][1,3]benzodioxole-7,3′-indol]-1′(2′H)-yl)methyl]-1,3-oxazole-4-carboxamide]
– | 100 to 1000 | > 50 | O=C1N(C[C@H]2CCCO2)c2cccc(/C=C/c3ccc(F)cc3)c2C12COc1cc3c(cc12)CCO3 (stereo partly drawn) [Example 16.1, 4′-[(E)-2-(4-fluorophenyl)ethenyl]-1′-[(2R)-tetrahydrofuran-2-ylmethyl]-5,6-dihydrospiro[benzo[1,2-b:5,4-b′]difuran-3,3′-indol]-2′(1′H)-one]
– | 100 to 1000 | > 50 | O=C1N(C[C@H]2CCCO2)c2cccc(-c3cccc4c3sc3ccccc34)c2C12COc1cc3c(cc12)CCO3 (stereo partly drawn) [Example 16.2, 4′-dibenzo[b,d]thiophen-4-yl-1′-[(2R)-tetrahydrofuran-2-ylmethyl]-5,6-dihydrospiro[benzo[1,2-b:5,4-b′]difuran-3,3′-indol]-2′(1′H)-one]
– | 1000 to 10000 | > 50 | O=C1N(C[C@H]2CCCO2)c2cccc(-c3csc4ccccc34)c2C12COc1cc3c(cc12)CCO3 (stereo partly drawn) [Example 16.3, 4′-(1-benzothiophen-3-yl)-1′-[(2R)-tetrahydrofuran-2-ylmethyl]-5,6-dihydrospiro[benzo[1,2-b:5,4-b′]difuran-3,3′-indol]-2′(1′H)-one]
– | 100 to 1000 | > 50 | Cn1ccc2cc(-c3cccc4c3C3(COc5cc6c(cc53)CCO6)C(=O)N4C[C@H]3CCCO3)ccc21 (stereo partly drawn) [Example 16.4, 4′-(1-methyl-1H-indol-5-yl)-1′-[(2R)-tetrahydrofuran-2-ylmethyl]-5,6-dihydrospiro[benzo[1,2-b:5,4-b′]difuran-3,3′-indol]-2′(1′H)-one]
– | 100 to 1000 | > 50 | O=C1N(C[C@H]2CCCO2)c2cccc(-c3cc(C(F)(F)F)cc(C(F)(F)F)c3)c2C12COc1cc3c(cc12)CCO3 (stereo partly drawn) [Example 16.5, 4′-[3,5-bis(trifluoromethyl)phenyl]-1′-[(2R)-tetrahydrofuran-2-ylmethyl]-5,6-dihydrospiro[benzo[1,2-b:5,4-b′]difuran-3,3′-indol]-2′(1′H)-one]
– | 100 to 1000 | > 50 | Cc1noc2cc3c(cc12)C1(CO3)C(=O)N(Cc2ccc(-c3cc(N)n[nH]3)cc2)c2ccccc21 (centres unmarked) [Example 29.1, 1′-[4-(3-amino-1H-pyrazol-5-yl)benzyl]-3-methylspiro[furo[3,2-f][1,2]benzisoxazole-5,3′-indol]-2′(1′H)-one hydrochloride]
– | 100 to 1000 | > 50 | Nc1cc(-c2ccc(CN3C(=O)C4(COc5cc6c(cc54)OCCO6)c4ccccc43)cc2)[nH]n1 (centres unmarked) [Example 29.2, 1′-[4-(3-amino-1H-pyrazol-5-yl)benzyl]-2,3-dihydrospiro[furo[2,3-g][1,4]benzodioxine-8,3′-indol]-2′(1′H)-one hydrochloride]
– | 1000 to 10000 | > 50 | O=C1N(Cc2ccc(N[C@@H]3CCNC3)cc2)c2ccccc2C12COc1cc(F)c(F)cc12 (stereo partly drawn) [Example 33.2, 5,6-difluoro-1′-{4-[(3R)-pyrrolidin-3-ylamino]benzyl}spiro[1-benzofuran-3,3′-indol]-2′(1′H)-one hydrochloride]
– | 1 to 100 | > 50 | NC(=O)c1cccc(CN2C(=O)C3(COc4cc5c(cc43)OCCO5)c3ccccc32)n1 (centres unmarked) [Example 42, 6-[(2′-oxo-2,3-dihydrospiro[furo[2,3-g][1,4]benzodioxine-8,3′-indol]-1′(2′H)-yl)methyl]pyridine-2-carboxamide]

SMILES | melting point | IC50 (sodium channel) [nM] | inhibition at 10 µM (CYP3A4) [%]
CCCCOc1ccc(-c2cccc3c2C2(COc4cc5c(cc42)CCO5)C(=O)N3C[C@H]2CCCO2)cc1 (stereo partly drawn) [Example 16.8, 4′-(4-butoxyphenyl)-1′-[(2R)-tetrahydrofuran-2-ylmethyl]-5,6-dihydrospiro[benzo[1,2-b:5,4-b′]difuran-3,3′-indol]-2′(1′H)-one] | – | 100 to 1000 | < 50

— patent US8263606B2 (Xenon Pharmaceuticals Inc., priority 2008, dated 2012)
